Measured values reported in article PMC5856640 (ACS chemical biology, 2018).

Target: Mpa (mycobacterial proteasome ATPase) (Mycobacterium tuberculosis, UniProt P9WQN5)
Experiment: […]
Assay type: binding

Chain of Mpa (mycobacterial proteasome ATPase) (P9WQN5 whole entry): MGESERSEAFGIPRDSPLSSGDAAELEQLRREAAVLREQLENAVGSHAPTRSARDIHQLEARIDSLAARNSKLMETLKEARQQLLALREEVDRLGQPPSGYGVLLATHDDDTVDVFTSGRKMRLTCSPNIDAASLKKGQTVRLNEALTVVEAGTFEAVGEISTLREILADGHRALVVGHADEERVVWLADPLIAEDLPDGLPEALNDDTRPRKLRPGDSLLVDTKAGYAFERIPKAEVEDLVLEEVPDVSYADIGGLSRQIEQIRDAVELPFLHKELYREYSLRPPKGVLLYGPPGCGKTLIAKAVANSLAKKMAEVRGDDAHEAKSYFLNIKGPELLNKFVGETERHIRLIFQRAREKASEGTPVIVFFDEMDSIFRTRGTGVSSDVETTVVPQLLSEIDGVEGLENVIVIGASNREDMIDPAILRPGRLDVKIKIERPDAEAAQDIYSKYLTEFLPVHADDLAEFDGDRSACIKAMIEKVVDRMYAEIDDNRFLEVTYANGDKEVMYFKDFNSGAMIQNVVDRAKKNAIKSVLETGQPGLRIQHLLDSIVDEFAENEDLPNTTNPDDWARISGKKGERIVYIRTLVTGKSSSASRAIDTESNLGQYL

SMILES	Kd [nM]
c1ccc(N=NN2CCOCC2)cc1 [MTBA, NSC 136065]	1 ± 0.1
Cn1cnc2ncnn2c1=S [MTBB, NSC 145180]	400 ± 100
